Results as given in patent US12286437B2, “Cardiac sarcomere inhibitors” (Cytokinetics, Inc., priority 2021, dated 2025).

Tests used:
[1] = Mouse single dose pharmacokinetics; format: in vivo, C57BL/6 mice; details: male, C57BL/6, plasma, 0.5 mg/kg, IV; for Vd: read-out: Vss; for half-life: read-out: t½ (converted)
Method: Male C57BL/6 mice (18-25 g, 6-8 weeks old) were obtained from Zhejiang Vital River Laboratory Animal Technology Co., Ltd. All animals for IV administration had free access to food and water. The IV dosing was performed through tail vein. The IV dose solution for the Test Articles was prepared in 10% DMA/20% PG/70% HPβCD solution (40% w/v aqueous HPβCD) at a concentration of 0.1 mg/mL. The oral dosing suspension was prepared by suspending Test Article in 0.5% HPMC/0.1% Tween 80 in water at a concentration 0.2 mg/mL. Concentrations of IV and PO doses were measured at the end of the study. Pharmacokinetic (PK) parameters were calculated using the nominal dose values if the measured values were within 20% of the nominal values. A group of 15 mice received the IV dose where the volume was 5 mL/kg. Another group of 15 mice received by oral gavage of Test Article at 1 mg/kg. The oral dose volume was 5 mL/kg. Sparse blood samples were collected from groups of three mice via retro-orbital bleeding, placed into a K2EDTA microtainer tube and maintained on ice until centrifugation to obtain plasma. Each designated group of mice were bled at two-time points. The time points were predose (PO only), 5 (IV only), 15, 30 minutes, 1, 2, 4, 6, 8 and 24 hours postdose. Blood samples were centrifuged and the collected plasma was stored at −80° C. until analysis. Plasma samples were analyzed for Test Article concentrations using an LC/MS/MS method. Briefly, a 50 μL aliquot of each plasma sample was mixed with 100 μL of acetonitrile that contained an internal standard (IS). The mixture was vortexed and centrifuged. Ten (10) μL of the resulting solution was injected onto a reverse-phase C18 column and the resultant peaks detected on a LC/MS/MS equipped with a turbo ionspray ionization source. Sample concentrations below the limit of quantification (BLQ) were treated as zero for PK calculations. Composite PK parameters were estimated from a maximum of two sampling points per mouse and three mice per sampling point and the sparse data option of WinNonlin was used for noncompartmental analysis of the concentration-time data (Phoenix WinNonLin software, version 64; Pharsight, Mountain View, CA). The elimination rate constant (k) was calculated as the absolute value of the slope of the linear regression of logarithm of the concentration versus time for the last three data points of the concentration-time profiles. Apparent elimination half-life (t1/2) values were calculated as ln(2)/k. Area under the concentration-time curve (AUC) values were estimated using linear trapezoidal method. AUCt values were calculated from the dosing time to the last measurable concentration. AUC∞ values were calculated as the sum of the corresponding AUCt and the ratio of the last detectable concentration divided by k. Plasma clearance (CL) was calculated from Dose/AUC∞. Mean resident time (MRT) was estimated by moment analysis. Volume of distribution at steady state (Vss) was calculated from MRT∞×CL. Maximum concentration (Cmax) and time to reach Cmax (tmax) were recorded as observed. Bioavailability was calculated dAUC∞,po/dAUC∞,iv×100% where dAUC was the dose normalized AUC value. Data for compounds tested are provided in Table B. Compounds tested were prepared in accordance with the synthetic procedures described herein.

CYP2D6 = biological target: T1, CYP2D6 (Homo sapiens, UniProt P10635); assay: Time-dependent inhibition of CYP2D6 in human liver microsomes; format: in vitro ADME; details: for (% Activity NADPH T0)/(% Activity NADPH T30): fold change; for activity at 30 min, 25 µM / activity at 0 min, 25 µM / activity at 30 min, 50 µM / activity at 0 min, 50 µM: pooled human liver microsomes, human liver microsomes; for activity at 30 min, 25 µM / activity at 30 min, 50 µM: after 30 minutes incubation, read-out: % Activity NADPH T30; for activity at 0 min, 25 µM / activity at 0 min, 50 µM: time zero, read-out: % Activity NADPH T0
T1 construct: Pooled human microsomes and selective CYP probe substrates were used; from tissue; host or cells: pooled human liver microsomes
T1 sequence (P10635 whole entry): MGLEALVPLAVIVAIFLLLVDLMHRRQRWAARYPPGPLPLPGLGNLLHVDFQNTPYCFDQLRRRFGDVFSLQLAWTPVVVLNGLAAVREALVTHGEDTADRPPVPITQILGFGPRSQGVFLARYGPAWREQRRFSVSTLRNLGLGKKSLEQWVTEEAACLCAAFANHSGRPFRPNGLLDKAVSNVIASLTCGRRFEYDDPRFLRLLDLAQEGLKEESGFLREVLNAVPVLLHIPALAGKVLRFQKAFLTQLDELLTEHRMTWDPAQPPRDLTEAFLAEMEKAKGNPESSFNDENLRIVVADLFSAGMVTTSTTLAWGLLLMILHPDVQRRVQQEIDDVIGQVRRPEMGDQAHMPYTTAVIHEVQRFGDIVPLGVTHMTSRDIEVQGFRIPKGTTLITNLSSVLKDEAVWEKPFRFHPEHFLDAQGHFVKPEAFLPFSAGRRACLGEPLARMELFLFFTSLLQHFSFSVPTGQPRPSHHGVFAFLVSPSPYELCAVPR
Method: (§1) An assessment of the time-dependent Inhibitory Potential of the test compounds against Principal Human Cytochrome P450 Isozymes using Human Liver Microsomes was also carried out using standard methods (Grimm et al, Drug Metab. Dispos., July; 37(7):1355-70. doi: 10.1124/dmd.109.026716, 2009). Pooled human microsomes and selective CYP probe substrates were used for in vitro assessment of test compounds at 25 and 50 μM as time-dependent inhibitors of […] human hepatic cytochrome P450 isozymes (CYP1A2, 2B6, 2C9, 2C19, 2D6, and 3A4). LC-MS/MS was used to quantify metabolite formation. The inhibition of each P450 enzyme in human liver microsomes was measured as the percentage decrease in the activity of marker metabolite formation as measured by LC-MS/MS compared to non-inhibited controls (=100% activity) at time zero and after 30 minutes incubation. The occurrence of any time dependent inhibition was then expressed as the fold change in enzyme activity at time zero relative to the activity after 30 minutes incubation.

[2] = system: Rat Cardiac Contractility; assay: Echocardiography assessment of acute pharmacodynamic effect in rat cardiac contractility (fractional shortening); format: in vivo, Sprague Dawley rats; details: oral gavage, plasma concentration vs fractional shortening, 1 and 4 h post-dose
Method: Assessment of in vivo cardiac function by echocardiography was performed in male Sprague Dawley rats under isoflurane (1-3%) anesthesia. 2-D M-mode images of the left ventricle were acquired in the parasternal long-axis view before, during, and after administration of compounds. In vivo fractional shortening was determined by M-mode image analysis with the following calculation: ((End diastolic diameter−end systolic diameter)[…] end diastolic diameter×100). Three pre-dose baseline M-Mode images were taken at 1-minute intervals prior to compound administration. Compounds were formulated in a 0.5% hydroxypropyl methylcellulose 2910 (HPMC 2910): 0.1% Tween 80 suspension and delivered as a single dose (5 mL/kg) by oral gavage. At one and four hours post-dose, rats were lightly anesthetized for M-mode echocardiography measurement. Concurrent with echocardiography measurements, blood samples were taken to determine the corresponding compound plasma concentrations. The resulting plasma concentrations were used to estimate the IC50 and IC10 values, which is the concentration at which fractional shortening is 50% and 10% of the pre-dose baseline contractility, respectively.

CYP2C9 = biological target: T2, CYP2C9 (Homo sapiens, UniProt P11712); assay: Time-dependent inhibition of CYP2C9 in human liver microsomes; format: in vitro ADME; details: for (% Activity NADPH T0)/(% Activity NADPH T30): fold change; for activity at 30 min, 25 µM / activity at 0 min, 25 µM / activity at 30 min, 50 µM / activity at 0 min, 50 µM: pooled human liver microsomes, human liver microsomes; for activity at 30 min, 25 µM / activity at 30 min, 50 µM: after 30 minutes incubation, read-out: % Activity NADPH T30; for activity at 0 min, 25 µM / activity at 0 min, 50 µM: time zero, read-out: % Activity NADPH T0
T2 construct: Pooled human microsomes and selective CYP probe substrates were used; from tissue; host or cells: pooled human liver microsomes
T2 sequence (P11712 whole entry): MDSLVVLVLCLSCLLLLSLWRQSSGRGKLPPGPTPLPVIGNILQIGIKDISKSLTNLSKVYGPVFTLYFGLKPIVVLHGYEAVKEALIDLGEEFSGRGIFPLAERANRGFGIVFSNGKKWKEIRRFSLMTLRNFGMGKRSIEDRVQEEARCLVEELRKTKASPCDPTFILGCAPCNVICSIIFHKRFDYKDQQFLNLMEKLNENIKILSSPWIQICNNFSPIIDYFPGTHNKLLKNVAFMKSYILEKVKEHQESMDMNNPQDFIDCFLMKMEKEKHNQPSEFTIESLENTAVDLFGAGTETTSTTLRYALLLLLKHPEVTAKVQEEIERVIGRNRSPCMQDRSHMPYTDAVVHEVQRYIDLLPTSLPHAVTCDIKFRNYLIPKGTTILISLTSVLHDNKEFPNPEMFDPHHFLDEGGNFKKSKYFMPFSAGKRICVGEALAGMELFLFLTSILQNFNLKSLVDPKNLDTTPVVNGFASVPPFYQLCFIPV
Method: as §1

Row | Compound | clearance [1] [mL/min/kg] | Vd [1] [L/kg] | half-life [1] [h] | (% Activity NADPH T0)/(% Activity NADPH T30) (CYP2D6; CYP2D6, 25 μM) | (% Activity NADPH T0)/(% Activity NADPH T30) (CYP2D6; CYP2D6, 50 μM) | activity at 30 min, 25 µM (CYP2D6; CYP2D6, 25 μM) [%] | activity at 0 min, 25 µM (CYP2D6; CYP2D6, 25 μM) [%] | activity at 30 min, 50 µM (CYP2D6; CYP2D6, 50 μM) [%] | activity at 0 min, 50 µM (CYP2D6; CYP2D6, 50 μM) [%] | IC10 [2] [µM] | IC50 [2] [µM] | (% Activity NADPH T0)/(% Activity NADPH T30) (CYP2C9; CYP2C9, 25 μM) | (% Activity NADPH T0)/(% Activity NADPH T30) (CYP2C9; CYP2C9, 50 μM) | activity at 30 min, 25 µM (CYP2C9; CYP2C9, 25 μM) [%] | activity at 0 min, 25 µM (CYP2C9; CYP2C9, 25 μM) [%] | activity at 30 min, 50 µM (CYP2C9; CYP2C9, 50 μM) [%] | activity at 0 min, 50 µM (CYP2C9; CYP2C9, 50 μM) [%] | (% Activity NADPH T0)/(% Activity NADPH T30) (CYP2C9; CYP2C9, 50 μM, listed as compound 7) | (% Activity NADPH T0)/(% Activity NADPH T30) (CYP2D6; CYP2D6, 50 μM, listed as compound 6) | (% Activity NADPH T0)/(% Activity NADPH T30) (CYP2D6; CYP2D6, 50 μM, listed as compound 4)
1 | C[C@H]1CC[C@H](N2CC(=O)N(Cc3ccc(F)c(F)c3)C3(CN(C(N)=O)C3)C2=O)CC1 [Compound 5, 5-(3,4-difluorobenzyl)-8-((1r,4r)-4-methylcyclohexyl)-6,9-dioxo-2,5,8-triazaspiro[3.5]nonane-2-carboxamide] | 18.9 | 4.08 | 3.08 | 1.1 | 1.1 | 89 | 98 | 84 | 94 | 1.17 | 4.44 | 0.8 | 1.0 | 79 | 62 | 64 | 62 | – | – | –
2 | CC(C)N1CC(=O)N(Cc2ccc(Cl)c(F)c2)C2(CN(c3cccnn3)C2)C1=O [Compound 8, 5-(4-chloro-3-fluorobenzyl)-8-isopropyl-2-(pyridazin-3-yl)-2,5,8-triazaspiro[3.5]nonane-6,9-dione] | 132 | 5.14 | 0.66 | 0.9 | 1.0 | 98 | 92 | 91 | 87 | 0.508 | 2.25 | 1.0 | 1.0 | 107 | 104 | 109 | 112 | – | – | –
3 | C[C@H]1CC[C@H](N2CC(=O)N(Cc3ccc(F)c(Cl)c3)C3(CN(C(N)=O)C3)C2=O)CC1 [Compound 7, 5-(3-chloro-4-fluorobenzyl)-8-((1r,4r)-4-methylcyclohexyl)-6,9-dioxo-2,5,8-triazaspiro[3.5]nonane-2-carboxamide] | 15 | 2.95 | 2.5 | 0.9 | 0.9 | 88 | 80 | 95 | 87 | – | – | 1.3 | 1.4 | 75 | 94 | 61 | 87 | 1.3 | – | –
4 | Cc1cc(CN2C(=O)CN([C@H]3CC[C@H](C)CC3)C(=O)C23CN(C(N)=O)C3)ccc1F [Compound 6, 5-(4-fluoro-3-methylbenzyl)-8-((1r,4r)-4-methylcyclohexyl)-6,9-dioxo-2,5,8-triazaspiro[3.5]nonane-2-carboxamide] | 28.2 | 2.52 | 1.27 | 1.3 | 1.2 | 87 | 112 | 92 | 107 | – | – | 1.2 | 1.0 | 41 | 48 | 33 | 34 | – | no change in activity | –
5 | CC(C)N1CC(=O)N(Cc2ccc(C(F)(F)F)cc2)C2(CN(c3cccnn3)C2)C1=O [Compound 13, 8-isopropyl-2-(pyridazin-3-yl)-5-(4-(trifluoromethyl)benzyl)-2,5,8-triazaspiro[3.5]nonane-6,9-dione] | 101 | 2.25 | 0.46 | 1.0 | 1.4 | 100 | 96 | 72 | 98 | 0.317 | 1.17 | 0.9 | 1.0 | 114 | 107 | 109 | 111 | – | – | –
6 | C[C@H]1CC[C@H](N2CC(=O)N(Cc3ccc(F)c(F)c3)C3(CN(C=O)C3)C2=O)CC1 [Compound 4, 5-(3,4-difluorobenzyl)-8-((1r,4r)-4-methylcyclohexyl)-6,9-dioxo-2,5,8-triazaspiro[3.5]nonane-2-carbaldehyde] | – | – | – | 1.3 | 1.1 | – | – | – | – | 0.284 | 2.76 | 1.0 | 0.9 | – | – | – | – | – | – | no change in activity
